From ChEMBL document CHEMBL1201862, “PubChem BioAssay data set” (2004)
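How tested: cells in 96-well plates exposed to compound for 48 hours at five concentrations. The concentration for 50% growth inhibition is given as GI50.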 Active and inactive are the calls of the source. No stated cut-off is given here; in the data, active = GI50 up to about 1.1 µM and inactive = higher.

What was measured:
Test in all cases: NCI anticancer screen, dose series, 48 h
[1] = system: K562
[2] = system: HOP-92
[3] = system: SNB-19
[4] = system: M14
[5] = system: SR
[6] = system: RXF 393
[7] = system: BT-549
[8] = system: COLO 205
[9] = system: CAKI-1
[10] = system: UACC-62
[11] = system: TK-10
[12] = system: OVCAR-5
[13] = system: LOX IMVI
[14] = system: UACC-257
[15] = system: IGROV-1
[16] = system: MDA-MB-435
[17] = system: MOLT-4
[18] = system: A549
[19] = system: OVCAR-3
[20] = system: EKVX
[21] = system: NCI-H460
[22] = system: NCI/ADR-RES
[23] = system: HCT-15
[24] = system: SN12C
[25] = system: SK-MEL-2
[26] = system: SK-MEL-5
[27] = system: SF-268
[28] = system: CCRF-CEM
[29] = system: HCC 2998
[30] = system: SW-620
[31] = system: OVCAR-4
[32] = system: MCF7
[33] = system: NCI-H522
[34] = system: U-251
[35] = system: A498
[36] = system: NCI-H226
[37] = system: OVCAR-8
[38] = system: HCT-116
[39] = system: RPMI-8226
[40] = system: DU-145
[41] = system: ACHN
[42] = system: SK-MEL-28
[43] = system: HOP-62
[44] = system: KM12
[45] = system: PC-3
[46] = system: UO-31
[47] = system: NCI-H23
[48] = system: MDA-N
[49] = system: Malme-3M
[50] = system: T47D
[51] = system: Hs-578T
[52] = system: SK-OV-3
[53] = system: 786-0
[54] = system: SNB-75
[55] = system: SF-295
[56] = system: SF-539
[57] = system: HL-60
[58] = system: HT-29
[59] = system: MDA-MB-231

With `O=[N+]([O-])c1ccc(-c2nc3ccccc3o2)cc1` as the molecule, how does the GI50 [1] read?
Its GI50 is > 100 µM (inactive).

And the GI50 [2]?
The GI50 was > 100 µM (inactive).

And the GI50 [3]?
Its GI50 is > 100 µM (inactive).

And the GI50 [4]?
Its GI50 is > 100 µM (inactive).

And the GI50 [5]?
Its GI50 is > 100 µM (inactive).

And the GI50 [6]?
The GI50 was > 100 µM (inactive).

And the GI50 [7]?
Its GI50 is > 100 µM (inactive).

And the GI50 [8]?
Its GI50 is > 100 µM (inactive).

What about the GI50 [9] of the same molecule?
Its GI50 is > 100 µM (inactive).

And the GI50 [10]?
Its GI50 is > 100 µM (inactive).

And the GI50 [11]?
Its GI50 is > 100 µM (inactive).

And the GI50 [12]?
Its GI50 is > 100 µM (inactive).

What about the GI50 [13] of the same molecule?
Its GI50 is > 100 µM (inactive).

And the GI50 [14]?
Its GI50 is > 100 µM (inactive).

And the GI50 [15]?
Its GI50 is > 100 µM (inactive).

What about the GI50 [16] of the same molecule?
Its GI50 is > 100 µM (inactive).

And the GI50 [17]?
The GI50 was > 100 µM (inactive).

What about the GI50 [18] of the same molecule?
The GI50 was > 100 µM (inactive).

And the GI50 [19]?
Its GI50 is > 100 µM (inactive).

And the GI50 [20]?
The GI50 was > 100 µM (inactive).

What about the GI50 [21] of the same molecule?
Its GI50 is > 100 µM (inactive).

What about the GI50 [22] of the same molecule?
The GI50 was > 100 µM (inactive).

And the GI50 [23]?
The GI50 was over 100 µM.

What about the GI50 [24] of the same molecule?
Its GI50 is > 100 µM (inactive).

And the GI50 [25]?
The GI50 was > 100 µM (inactive).

And the GI50 [26]?
Its GI50 is > 100 µM (inactive).

And the GI50 [27]?
The GI50 was > 100 µM (inactive).

What about the GI50 [28] of the same molecule?
The GI50 was 40.4 µM (inactive).

And the GI50 [29]?
Its GI50 is > 100 µM (inactive).

And the GI50 [30]?
Its GI50 is > 100 µM (inactive).

And the GI50 [31]?
Its GI50 is > 100 µM (inactive).

What about the GI50 [32] of the same molecule?
The GI50 was > 100 µM (inactive).

What about the GI50 [33] of the same molecule?
The GI50 was > 100 µM (inactive).

What about the GI50 [34] of the same molecule?
Its GI50 is > 100 µM (inactive).

What about the GI50 [35] of the same molecule?
The GI50 was > 100 µM (inactive).

And the GI50 [36]?
Its GI50 is > 100 µM (inactive).

And the GI50 [37]?
The GI50 was > 100 µM (inactive).

And the GI50 [38]?
The GI50 was > 100 µM (inactive).

And the GI50 [39]?
Its GI50 is > 100 µM (inactive).

And the GI50 [40]?
The GI50 was > 100 µM (inactive).

What about the GI50 [41] of the same molecule?
Its GI50 is > 100 µM (inactive).

What about the GI50 [42] of the same molecule?
Its GI50 is > 100 µM (inactive).

What about the GI50 [43] of the same molecule?
Its GI50 is 69 µM (inactive).

What about the GI50 [44] of the same molecule?
The GI50 was > 100 µM (inactive).

What about the GI50 [45] of the same molecule?
The GI50 was > 100 µM (inactive).

And the GI50 [46]?
The GI50 was > 100 µM (inactive).

What about the GI50 [47] of the same molecule?
The GI50 was > 100 µM (inactive).

What about the GI50 [48] of the same molecule?
Its GI50 is > 100 µM (inactive).

What about the GI50 [49] of the same molecule?
The GI50 was > 100 µM (inactive).

And the GI50 [50]?
Its GI50 is > 100 µM (inactive).

And the GI50 [51]?
Its GI50 is > 100 µM (inactive).

What about the GI50 [52] of the same molecule?
Its GI50 is > 100 µM (inactive).

What about the GI50 [53] of the same molecule?
Its GI50 is > 100 µM (inactive).

What about the GI50 [54] of the same molecule?
Its GI50 is > 100 µM (inactive).

And the GI50 [55]?
Its GI50 is > 100 µM (inactive).

What about the GI50 [56] of the same molecule?
Its GI50 is > 100 µM (inactive).

What does the source list for `COc1oc(C2C/C(=C/C(C)=C/C(C)=C/C(C)=C/c3ccc([N+](=O)[O-])cc3)CO2)c(C)c(=O)c1C` (centres undefined)?
GI50 [1]: < 0.01 µM (active); GI50 [2]: 6.95 µM (inactive); GI50 [3]: 15.9 µM (inactive); GI50 [4]: 6.03 µM (inactive); GI50 [5]: < 0.01 µM (active); GI50 [6]: 17.9 µM (inactive); GI50 [7]: 2.73 µM (inactive); GI50 [8]: 3.55 µM (inactive); GI50 [9]: 12.5 µM (inactive); GI50 [10]: 5 µM (inactive); GI50 [11]: 10 µM (inactive); GI50 [12]: 47.4 µM (inactive); GI50 [13]: 4.02 µM (inactive); GI50 [14]: 5.32 µM (inactive); GI50 [15]: 13.2 µM (inactive); GI50 [16]: 3.01 µM (inactive); GI50 [17]: 1.67 µM (inactive); GI50 [18]: 1.74 µM (inactive); GI50 [19]: 11.1 µM (inactive); GI50 [20]: 2.58 µM (inactive); GI50 [21]: 1.26 µM (inactive); GI50 [57]: 1.68 µM (inactive); GI50 [23]: 5.64 µM; GI50 [24]: 2.57 µM (inactive); GI50 [25]: 23.9 µM (inactive); GI50 [58]: 3.14 µM (inactive); GI50 [26]: < 0.01 µM (active); GI50 [27]: 10.3 µM (inactive); GI50 [28]: 2.63 µM (inactive); GI50 [29]: 22.4 µM (inactive); GI50 [30]: 9.1 µM (inactive); GI50 [31]: 3.5 µM (inactive); GI50 [32]: 1.59 µM (inactive); GI50 [33]: 0.344 µM (active); GI50 [34]: 6.27 µM (inactive); GI50 [35]: 6.89 µM (inactive); GI50 [36]: 7.28 µM (inactive); GI50 [37]: 1.52 µM (inactive); GI50 [38]: < 0.01 µM (active); GI50 [39]: 0.55 µM (active); GI50 [40]: 8.2 µM (inactive); GI50 [41]: 1.12 µM (active); GI50 [42]: 6.1 µM (inactive); GI50 [43]: 19.9 µM (inactive); GI50 [44]: 1.58 µM (inactive); GI50 [45]: 2.02 µM (inactive); GI50 [46]: 5.2 µM (inactive); GI50 [47]: 1.79 µM (inactive); GI50 [48]: 2.74 µM (inactive); GI50 [49]: 3.61 µM (inactive); GI50 [50]: 1.04 µM (active); GI50 [51]: 5.89 µM (inactive); GI50 [52]: 12.9 µM (inactive); GI50 [53]: 5.64 µM (inactive); GI50 [54]: 15.4 µM (inactive); GI50 [55]: 2.47 µM (inactive); GI50 [59]: 15.8 µM (inactive); GI50 [56]: 12 µM (inactive)
